Here are results for twelve compounds from patent US20230322776A1, “NEW ARYL-PYRIDO-PYRIMIDIN-ONE DERIVATIVES” (Hoffmann-La Roche Inc., priority 2020, published 2023).

The target of one assay is BRAF V660E (Homo sapiens, UniProt P15056, V600E). In words: KD BRAF V660E (Table 1; no method described). The assay is classed as binding.
For a further assay, the target named is BRAF (Homo sapiens, UniProt P15056). The assay can be described thus: KD BRAF (Table 1; no method described). The assay is classed as binding.
BRAF, sequence (P15056 whole entry): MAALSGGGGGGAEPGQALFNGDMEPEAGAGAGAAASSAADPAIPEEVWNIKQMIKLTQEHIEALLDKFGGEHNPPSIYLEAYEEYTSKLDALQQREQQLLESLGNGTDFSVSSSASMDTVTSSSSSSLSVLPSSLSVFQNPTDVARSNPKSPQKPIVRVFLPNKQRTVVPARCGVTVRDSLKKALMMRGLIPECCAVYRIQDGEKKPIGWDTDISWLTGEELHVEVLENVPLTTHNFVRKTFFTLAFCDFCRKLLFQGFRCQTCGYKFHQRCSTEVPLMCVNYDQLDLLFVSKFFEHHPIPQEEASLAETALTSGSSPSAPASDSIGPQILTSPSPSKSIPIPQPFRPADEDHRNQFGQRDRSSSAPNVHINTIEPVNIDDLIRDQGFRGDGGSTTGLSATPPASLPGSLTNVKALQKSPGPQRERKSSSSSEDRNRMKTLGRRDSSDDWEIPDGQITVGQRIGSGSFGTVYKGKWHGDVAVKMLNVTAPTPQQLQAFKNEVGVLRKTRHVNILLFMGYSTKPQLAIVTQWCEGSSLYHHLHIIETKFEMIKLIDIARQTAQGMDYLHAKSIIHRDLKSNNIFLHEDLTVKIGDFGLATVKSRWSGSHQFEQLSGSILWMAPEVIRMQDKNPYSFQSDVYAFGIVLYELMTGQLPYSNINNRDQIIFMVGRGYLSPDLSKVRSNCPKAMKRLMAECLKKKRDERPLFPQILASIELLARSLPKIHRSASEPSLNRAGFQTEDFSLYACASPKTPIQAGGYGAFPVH
The test system of assay [1] is A375 cells (V600E mutated BRAF), ERK phospho-T202/Y204. In words: HTRF assay for P-ERK determination in A375 cells (BRAF inhibition). Particulars: Homo sapiens, A-375, 1 hour drug incubation, DMSO = 100%, 10 μM Dabrafenib = 0%, top concentration 10 μM, read-out: P-ERK_A375: IC50. The assay is classed as cell-based. The source says: (§1) A375 is a cellular cancer model expressing V600E mutated BRAF and HCT116 a cellular cancer model expressing WT BRAF. First generation BRAF inhibitors such as e.g. dabrafenib induce a paradox effect on tumour cells in that they inhibit the growth of V600E mutated BRAF cells (such as e.g. A375), while they activate growth in WT BRAF cells (such as e.g. HCT 116). ERK 1,2 phosphorylation (terminal member of the phosphorylation cascade of the MAPK pathway) is hereafter reported as main readout for the activation status of the MAPK pathway. DMEM no-phenol red medium supplemented with L-glutamine was purchased from (Thermo Fisher Scientific). Fetal bovine serum (FBS) was purchased from VWR. Advanced ERK phospho-T202/Y204 kit—10,000 tests was purchased from Cisbio cat #64AERPEH. A375 (catalog #CRL-1619) and HCT116 (catalog #CCL-247) cells were originally obtained from American type Culture Collection (ATCC) and banked by the Roche repository. 384-Well microplates ultized were purchased from Greiner Bio-One, 384-well, (With Lid, HiBase, Low volume cat 784-080).
(§2) HTRF Assay for P-ERK Determination in A375 or HCT116 Cells
(§3) Prior to the assay, A375 and HCT116 cell lines are maintained in DMEM no-phenol red medium supplemented with 10% fetal bovine serum (FBS). Following compound treatment, P-ERK levels are determined by measuring FRET fluorescence signal induced by selective binding of two antibodies provided in the mentioned kit (Cisbio cat #64AERPEH) on ERK protein when phosphorylated at Thr202/Tyr204. Briefly, 8000 cells/well in 12 μl media/well are plated in the 384-well plate and left overnight in the incubator (at 37° C. with 5% CO2-humidified atmosphere), the following day the plate is treated in duplicate with test compounds, dabrafenib and PLX8394 (the latter two as controls) at the following final drug concentrations: 10 μM, 3 μM, 1 μM, 0.3 μM, 0.1 μM, 0.03 μM, 0.01 μM, 0.003 μM and 0.001 μM. All wells are subjected to DMSO normalization and drug incubation occurs for 1 hour. Then, 4 μl of a 4× lysis buffer supplied with the kit are added to the wells, the plate is then centrifuged for 30 second (3000 rpm) and incubated on a plate shaker for 1 h at rt.
(§4) At the end of the incubation 4 μl/well of advanced P-ERK antibody solution (prepared according to manufacturer's instruction) followed by 4 μl/well of criptate P-ERK antibody solution (prepared according to manufacturer's instruction) (Cisbio cat #64AERPEH) are added to test wells.
(§5) In order to allow proper data normalization, control wells non drug treated reported in the following table are always included in each plate (according to manufacturer's instruction):
(§6) The plate is then centrifuged at 3000 rpm for 30 seconds, sealed to prevent evaporation and incubated overnight in the dark at room temperature. The plate is then analyzed and fluorescence emission value collected through a Pherastast FSX (BMG Labtech) apparatus at […]. The obtained fluorescence values are processed according to the formula Ratio=[…]*10000 then the average of the ratio on the blank is subtracted to all values.
Data are normalized in the case of A375 cells (BRAF inhibition) considering the average of the ratio (blank subtracted) derived by DMSO only treated cells as 100% and by considering the average of the ratio (blank subtracted) derived by 10 μM Dabrafenib treated cells as 0%. Mean of the normalized points are fitted with sigmoidal curve and IC50 values are determined.

For assay [2], the system named is HCT116 cells (WT BRAF), ERK phospho-T202/Y204. The assay can be described thus: HTRF assay for P-ERK determination in HCT116 cells (BRAF activation, paradox). The assay is classed as cell-based. The note with it: for EC50: Homo sapiens, HCT-116, HCT116 cells, 1 hour drug incubation, activation relative to maximum Dabrafenib-mediated activation (100%), top concentration 10 μM, read-out: P-ERK_HCT-116: EC50—50PCT; for Fold Selectivity HCT-116 EC50-50/ A375: ratio of P-ERK HCT-116 EC50-50PCT to P-ERK A375 IC50.
Text: as §1, §2, §3, §4, §5, §6
Data are normalized in the case of HCT116 cells (BRAF activation) considering the average of the ratio (blank subtracted) derived by DMSO only treated cells as 0% and by considering the average of the ratio (blank subtracted) derived by Dabrafenib treated cells at the concentration which provides the highest signal as 100%. Individual points are fitted with either sigmoidal or bell shape curves, the percentage of activation compared to maximum Dabrafenib-mediated activation is determined.

BRAF V660E, sequence (P15056 2-766 V600E): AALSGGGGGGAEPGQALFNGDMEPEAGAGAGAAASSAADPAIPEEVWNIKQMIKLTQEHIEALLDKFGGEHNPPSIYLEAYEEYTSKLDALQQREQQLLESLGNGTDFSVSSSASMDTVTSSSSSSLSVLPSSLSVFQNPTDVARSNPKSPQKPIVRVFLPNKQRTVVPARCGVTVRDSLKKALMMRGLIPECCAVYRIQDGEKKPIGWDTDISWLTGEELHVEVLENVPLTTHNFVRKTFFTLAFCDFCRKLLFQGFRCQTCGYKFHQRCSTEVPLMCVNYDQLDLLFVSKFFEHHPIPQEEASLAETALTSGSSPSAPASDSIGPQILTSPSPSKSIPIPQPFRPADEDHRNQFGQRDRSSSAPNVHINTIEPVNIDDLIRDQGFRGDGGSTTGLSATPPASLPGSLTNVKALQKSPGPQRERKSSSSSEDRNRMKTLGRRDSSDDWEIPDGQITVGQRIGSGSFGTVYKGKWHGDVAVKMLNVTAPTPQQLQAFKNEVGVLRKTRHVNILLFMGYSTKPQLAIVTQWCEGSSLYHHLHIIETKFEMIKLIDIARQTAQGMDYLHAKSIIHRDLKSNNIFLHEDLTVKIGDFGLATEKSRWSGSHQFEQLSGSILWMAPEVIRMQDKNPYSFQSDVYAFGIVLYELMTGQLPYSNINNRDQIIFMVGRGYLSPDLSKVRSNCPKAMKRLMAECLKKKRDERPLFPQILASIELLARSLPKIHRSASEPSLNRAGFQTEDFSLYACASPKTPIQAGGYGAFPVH

For the compound `Cl.Cn1c(=O)c(-c2c(F)ccc(NS(=O)(=O)N3CC[C@@H](F)C3)c2F)cc2cnc(NCCCC(=O)NC3CCNCC3)nc21` [Example 19, 4-[[6-[2,6-difluoro-3-[[(3R)-3-fluoropyrrolidin-1-yl]sulfonylamino]phenyl]-8-methyl-7-oxopyrido[2,3-d]pyrimidin-2-yl]amino]-N-piperidin-4-ylbutanamide hydrochloride], on BRAF V660E, the Kd was found to be 0.0596 µM. Besides, on BRAF, the Kd worked out at 0.0383 µM. Besides, the IC50 in assay [1] stood at 7.21 µM. In addition, in assay [2], the EC50 was at least 10 µM and the “Fold Selectivity HCT-116 EC50-50/ A375” value is listed as 1.4.

`CC(=O)N1CCC(CCNc2ncc3cc(-c4c(F)ccc(NS(=O)(=O)N5CC[C@@H](F)C5)c4F)c(=O)n(C)c3n2)CC1` [Example 20, (3R)—N-[3-[2-[2-(1-acetylpiperidin-4-yl)ethylamino]-8-methyl-7-oxopyrido[2,3-d]pyrimidin-6-yl]-2,4-difluorophenyl]-3-fluoropyrrolidine-1-sulfonamide]: the Kd at BRAF V660E was 0.027 µM; on BRAF, 0.0102 µM. Also, the IC50 in assay [1] is 0.0367 µM. Besides, the EC50 in assay [2] worked out at 1.65 µM. For the same compound, in assay [2], the “Fold Selectivity HCT-116 EC50-50/ A375” value came to 44.9.

In the case of `CC(=O)N1CCC(CNc2ncc3cc(-c4c(F)ccc(NS(=O)(=O)N5CC[C@@H](F)C5)c4F)c(=O)n(C)c3n2)CC1` [Example 21, (3R)-N-[3-[2-[(1-acetylpiperidin-4-yl)methylamino]-8-methyl-7-oxopyrido[2,3-d]pyrimidin-6-yl]-2,4-difluorophenyl]-3-fluoropyrrolidine-1-sulfonamide], at BRAF V660E, the Kd was 0.109 µM. On BRAF, this compound had a Kd of 0.062 µM. In assay [1], the IC50 stood at 0.0867 µM. Besides, in assay [2], the EC50 was at least 10 µM and the “Fold Selectivity HCT-116 EC50-50/ A375” value was over 115.3.

As for `CC(=O)N1CC(Nc2ncc3cc(-c4c(F)ccc(NS(=O)(=O)N5CC[C@@H](F)C5)c4F)c(=O)n(C)c3n2)C1` [Example 22, (3R)-N-[3-[2-[(1-acetylazetidin-3-yl)amino]-8-methyl-7-oxopyrido[2,3-d]pyrimidin-6-yl]-2,4-difluorophenyl]-3-fluoropyrrolidine-1-sulfonamide], the Kd on BRAF V660E stood at 0.0208 µM; at BRAF, 0.0071 µM. For the same compound, in assay [1], the IC50 was determined as 0.184 µM. Besides, the EC50 in assay [2] is at least 10 µM. In addition, the “Fold Selectivity HCT-116 EC50-50/ A375” value in assay [2] is listed as over 54.4.

On BRAF V660E, `CC(=O)N[C@H]1CC[C@H](Nc2ncc3cc(-c4c(F)ccc(NS(=O)(=O)N5CC[C@@H](F)C5)c4F)c(=O)n(C)c3n2)C1` [Example 24, N-[(1S,3S)-3-[[6-[2,6-difluoro-3-[[(3R)-3-fluoropyrrolidin-1-yl]sulfonylamino]phenyl]-8-methyl-7-oxopyrido[2,3-d]pyrimidin-2-yl]amino]cyclopentyl]acetamide] returned a Kd of 0.0275 µM. At BRAF, this compound registered a Kd of 0.0082 µM. Further, the IC50 in assay [1] was determined as 0.126 µM. Besides, in assay [2], the EC50 came out at 8.87 µM and the “Fold Selectivity HCT-116 EC50-50/ A375” value is 70.7.

`CC(=O)NCCCCCNc1ncc2cc(-c3c(F)ccc(NS(=O)(=O)N4CC[C@@H](F)C4)c3F)c(=O)n(C)c2n1` [Example 25, N-[5-[[6-[2,6-difluoro-3-[[(3R)-3-fluoropyrrolidin-1-yl]sulfonylamino]phenyl]-8-methyl-7-oxopyrido[2,3-d]pyrimidin-2-yl]amino]pentyl]acetamide] showed a Kd on BRAF V660E of 0.0268 µM. The Kd at BRAF worked out at 0.0122 µM. Also, the IC50 in assay [1] is 0.044 µM. Besides, in assay [2], the EC50 amounted to 3.18 µM and the “Fold Selectivity HCT-116 EC50-50/ A375” value was determined as 72.3.

In the case of `CC(=O)N1CCC(O)(CCNc2ncc3cc(-c4c(F)ccc(NS(=O)(=O)N5CC[C@@H](F)C5)c4F)c(=O)n(C)c3n2)CC1` [Example 26, (3R)-N-[3-[2-[2-(1-acetyl-4-hydroxypiperidin-4-yl)ethylamino]-8-methyl-7-oxopyrido[2,3-d]pyrimidin-6-yl]-2,4-difluorophenyl]-3-fluoropyrrolidine-1-sulfonamide], the Kd on BRAF V660E turned out to be 0.0275 µM; on BRAF, 0.0094 µM. Also, in assay [1], the IC50 turned out to be 0.271 µM. Moreover, the EC50 in assay [2] is at least 10 µM. The “Fold Selectivity HCT-116 EC50-50/ A375” value in assay [2] is on record as over 36.9.

As to `CC(=O)N(C)CCCNc1ncc2cc(-c3c(F)ccc(NS(=O)(=O)N4CC[C@@H](F)C4)c3F)c(=O)n(C)c2n1` [Example 27, N-[3-[[6-[2,6-difluoro-3-[[(3R)-3-fluoropyrrolidin-1-yl]sulfonylamino]phenyl]-8-methyl-7-oxopyrido[2,3-d]pyrimidin-2-yl]amino]propyl]-N-methylacetamide], binding at BRAF V660E was characterised by a dissociation constant (Kd) of 0.0419 µM. The compound further came in with a Kd on BRAF of 0.0096 µM. Further, in assay [1], the IC50 worked out at 0.0548 µM. Moreover, in assay [2], the EC50 is 1.83 µM and the “Fold Selectivity HCT-116 EC50-50/ A375” value is given as 33.4.

`CC(=O)N1CCC(CCCNc2ncc3cc(-c4c(F)ccc(NS(=O)(=O)N5CC[C@@H](F)C5)c4F)c(=O)n(C)c3n2)CC1` [Example 28, (3R)-N-[3-[2-[3-(1-acetylpiperidin-4-yl)propylamino]-8-methyl-7-oxopyrido[2,3-d]pyrimidin-6-yl]-2,4-difluorophenyl]-3-fluoropyrrolidine-1-sulfonamide] yielded a Kd on BRAF V660E of 0.053 µM. The affinity at BRAF, expressed as Kd, was 0.0147 µM. The IC50 in assay [1] worked out at 0.0334 µM. Besides, in assay [2], the EC50 was found to be 1.37 µM and the “Fold Selectivity HCT-116 EC50-50/ A375” value is reported as 40.9.

For the compound `CC(=O)NCCOCCNc1ncc2cc(-c3c(F)ccc(NS(=O)(=O)N4CC[C@@H](F)C4)c3F)c(=O)n(C)c2n1` [Example 29, N-[2-[2-[[6-[2,6-difluoro-3-[[(3R)-3-fluoropyrrolidin-1-yl]sulfonylamino]phenyl]-8-methyl-7-oxopyrido[2,3-d]pyrimidin-2-yl]amino]ethoxy]ethyl]acetamide], the Kd on BRAF V660E stood at 0.0601 µM. This compound registered a Kd on BRAF of 0.0201 µM. Also, in assay [1], the IC50 turned out to be 0.375 µM. Besides, in assay [2], the EC50 is at least 10 µM and the “Fold Selectivity HCT-116 EC50-50/ A375” value is over 26.7.

As to `CCN(C)S(=O)(=O)Nc1ccc(F)c(-c2cc3cnc(NCCCN(C)C(C)=O)nc3n(C)c2=O)c1F` [Example 30, N-[3-[[6-[3-[[ethyl(methyl)sulfamoyl]amino]-2,6-difluorophenyl]-8-methyl-7-oxopyrido[2,3-d]pyrimidin-2-yl]amino]propyl]-N-methylacetamide], on BRAF V660E, the Kd is 0.159 µM. Besides, on BRAF, the Kd came to 0.0723 µM. Further, the IC50 in assay [1] was found to be 0.287 µM. Moreover, in assay [2], the concentration for a half-maximal effect (EC50) came to 5.7 µM and the “Fold Selectivity HCT-116 EC50-50/ A375” value is 19.8.

`CC(=O)N1CCN(CCNc2ncc3cc(-c4c(F)ccc(NS(=O)(=O)N5CC[C@@H](F)C5)c4F)c(=O)n(C)c3n2)CC1` [Example 31, (3R)-N-[3-[2-[2-(4-acetylpiperazin-1-yl)ethylamino]-8-methyl-7-oxopyrido[2,3-d]pyrimidin-6-yl]-2,4-difluorophenyl]-3-fluoropyrrolidine-1-sulfonamide] registered a Kd at BRAF V660E of 0.0522 µM. The compound further showed a Kd on BRAF of 0.021 µM. The IC50 in assay [1] came to 0.0798 µM. Moreover, in assay [2], the EC50 was 6.4 µM and the “Fold Selectivity HCT-116 EC50-50/ A375” value was determined as 80.2.
